Measurements from patent US20010006697A1, “Composition and method for producing low cholesterol eggs” (priority 1997, published 2001).
Entries after “also recorded” stand apart in the source; their conditions may differ. Marks after values point to notes of the source that are not given here.

What was measured:
laying hens [1] = test: Egg production, egg weights and yolk weights of statin-treated laying hens; format: in vivo, White Leghorn hens
Method: Hens were treated as described in Example 1. Egg yolk was weighed as outlined in Example 2.

[2] = tested on: apolipoprotein B (apoB) mRNA; test: Northern blot of liver mRNA: apoB; format: in vivo, White Leghorn hens; settings: normalized by 18S rRNA; day 35
Excerpt: Endocrinol. […] Endocrinol.

[3] = Liver weight of statin-treated laying hens; settings: day 35
laying hens [4] = test: Yolk cholesterol contents of eggs from statin-treated laying hens; format: in vivo, White Leghorn hens; settings: for less total yolk cholesterol than control eggs: week 2, per yolk
Method: Agric. […] Hens were treated as described in Example 1. […] The eggs were hard-cooked, and the yolks were separated, weighed, and crumbled. […] Agric. […] Egg homogenate filtrates were analyzed for cholesterol as described in Rudel, L. L. and Morris, M. D., J. Lipid Res. 14:364-366 (1973).

laying hens [5] = test: Liver cholesterol content; settings: day 35
[6] = 0.03% of diet, Overall (weeks 1-5)
[7] = 0.06% of diet, Overall (weeks 1-5)
[8] = 0.03% of diet, Week 1, listed as atorvastatin
[9] = 0.06% of diet, Week 1, listed as atorvastatin
[10] = 0.06% of diet, week 5 (maximal reduction for simvastatin, lovastatin)

CC(C)c1c(C(=O)Nc2ccccc2)c(-c2ccccc2)c(-c2ccc(F)cc2)n1CC[C@@H](O)C[C@@H](O)CC(=O)O [Atorvastatin, (ΔR,δR)-2-(p-fluorophenyl)-β,δ-dihydroxy-5-isopropyl-3-phenyl-4-(phenylcarbamoyl)pyrrole-1-heptanoic acid]
Egg weight, g (laying hens [1]; [6]): 61.3 ± 1.0^a,b (132) g | Hen-day egg production, % (laying hens [1]; [6]): 75.4 ± 4.1^b,c (132) % | Yolk weight, g (laying hens [1]; [6]): 16.6 ± 0.1^a (25) g | Egg weight, g (laying hens [1]; 0.03% of diet, Week 1): 63.0 ± 0.7^a g | Hen-day egg production, % (laying hens [1]; 0.03% of diet, Week 1): 82.9 ± 1.8^c,d % | Yolk weight, g (laying hens [1]; 0.03% of diet, Week 1): 17.2 ± 0.3^a g | Egg weight, g (laying hens [1]; 0.03% of diet, Week 2): 61.2 ± 0.8^c,d g | Hen-day egg production, % (laying hens [1]; 0.03% of diet, Week 2): 68.6 ± 1.0^c % | Yolk weight, g (laying hens [1]; 0.03% of diet, Week 2): 16.2 ± 0.3^a g | Egg weight, g (laying hens [1]; 0.03% of diet, Week 3): 60.5 ± 0.8^c g | Hen-day egg production, % (laying hens [1]; 0.03% of diet, Week 3): 80.0 ± 2.0^b % | Yolk weight, g (laying hens [1]; 0.03% of diet, Week 3): 16.7 ± 0.4^a g | Hen-day egg production, % (laying hens [1]; 0.03% of diet, Week 4): 77.1 ± 1.2^c % | Yolk weight, g (laying hens [1]; 0.03% of diet, Week 4): 16.2 ± 0.2^b g | Egg weight, g (laying hens [1]; 0.03% of diet, Week 5): 61.0 ± 0.7^b g | Hen-day egg production, % (laying hens [1]; 0.03% of diet, Week 5): 77.1 ± 1.2^c,d % | Yolk weight, g (laying hens [1]; 0.03% of diet, Week 5): 16.6 ± 0.3^a g | Egg weight, g (laying hens [1]; [7]): 58.9 ± 0.9^b (121) g | Hen-day egg production, % (laying hens [1]; [7]): 69.1 ± 3.5^c (121) % | Yolk weight, g (laying hens [1]; [7]): 14.3 ± 0.2^b (25) g | Egg weight, g (laying hens [1]; 0.06% of diet, Week 1): 63.6 ± 0.8^a g | Hen-day egg production, % (laying hens [1]; 0.06% of diet, Week 1): 82.9 ± 1.0^c,d % | Yolk weight, g (laying hens [1]; 0.06% of diet, Week 1): 16.1 ± 0.3^a g | Egg weight, g (laying hens [1]; 0.06% of diet, Week 2): 59.5 ± 1.0^d g | Hen-day egg production, % (laying hens [1]; 0.06% of diet, Week 2): 60.0 ± 1.8^d % | Yolk weight, g (laying hens [1]; 0.06% of diet, Week 2): 13.4 ± 0.3^b g | Egg weight, g (laying hens [1]; 0.06% of diet, Week 3): 56.9 ± 0.7^d g | Hen-day egg production, % (laying hens [1]; 0.06% of diet, Week 3): 68.6 ± 1.8^c % | Yolk weight, g (laying hens [1]; 0.06% of diet, Week 3): 13.9 ± 0.5^b g | Egg weight, g (laying hens [1]; 0.06% of diet, Week 4): 56.8 ± 0.7^e g | Hen-day egg production, % (laying hens [1]; 0.06% of diet, Week 4): 68.6 ± 1.8^d % | Yolk weight, g (laying hens [1]; 0.06% of diet, Week 4): 13.9 ± 0.3^c g | Egg weight, g (laying hens [1]; 0.06% of diet, Week 5): 57.8 ± 0.7^c g | Hen-day egg production, % (laying hens [1]; 0.06% of diet, Week 5): 74.3 ± 1.0^d % | Yolk weight, g (laying hens [1]; 0.06% of diet, Week 5): 14.2 ± 0.4^b g | decrease in yolk weight (laying hens [1]; 0.06% of diet, Week 5): 19% | hepatic apoB mRNA, linear contrasts (P≦0.05) [2]: atorvastatin>lovastatin; also recorded: atorvastatin>simvastatin | Liver Weight g ([3]; 0.03% of diet): 30.9 ± 1.2^b g | Liver Weight g/100 g BW ([3]; 0.03% of diet): 1.82 ± 0.05^a,b g/100 g BW | Liver Weight g ([3]; 0.06% of diet): 35.3 ± 2.3^a g | Liver Weight g/100 g BW ([3]; 0.06% of diet): 2.02 ± 0.09^a g/100 g BW | Yolk cholesterol content, mg cholesterol/g yolk (laying hens [4]; 0.03% of diet, Week 0): 11.4 ± 0.3^a mg cholesterol/g yolk | Yolk cholesterol content, mg cholesterol/yolk (laying hens [4]; 0.03% of diet, Week 0): 203.2 ± 7.7^a mg cholesterol/yolk | Yolk cholesterol content, mg cholesterol/g yolk (laying hens [4]; 0.03% of diet, Week 1): 9.4 ± 0.3^c mg cholesterol/g yolk | Yolk cholesterol content, mg cholesterol/yolk (laying hens [4]; 0.03% of diet, Week 1): 161.7 ± 5.5^b,c mg cholesterol/yolk | Yolk cholesterol content, mg cholesterol/g yolk (laying hens [4]; [8]): 9.4 mg cholesterol/g yolk | Yolk cholesterol content, mg cholesterol/yolk (laying hens [4]; [8]): 161.7 mg cholesterol/yolk | Yolk cholesterol content, mg cholesterol/g yolk (laying hens [4]; 0.03% of diet, Week 2): 8.7 ± 0.2^e mg cholesterol/g yolk | Yolk cholesterol content, mg cholesterol/g yolk (laying hens [4]; 0.03% of diet, Week 3): 8.6 ± 0.2^e mg cholesterol/g yolk | Yolk cholesterol content, mg cholesterol/yolk (laying hens [4]; 0.03% of diet, Week 3): 143.7 ± 3.3^c mg cholesterol/yolk | Yolk cholesterol content, mg cholesterol/g yolk (laying hens [4]; 0.03% of diet, Week 4): 8.3 ± 0.1^d mg cholesterol/g yolk | Yolk cholesterol content, mg cholesterol/yolk (laying hens [4]; 0.03% of diet, Week 4): 134.4 ± 2.2^c mg cholesterol/yolk | Yolk cholesterol content, mg cholesterol/g yolk (laying hens [4]; 0.03% of diet, Week 5): 8.2 ± 0.2^d mg cholesterol/g yolk | Yolk cholesterol content, mg cholesterol/yolk (laying hens [4]; 0.03% of diet, Week 5): 137.2 ± 3.8^d mg cholesterol/yolk | Yolk cholesterol content, mg cholesterol/yolk (laying hens [4]; 0.03% of diet, Week 5, listed as atorvastatin): 137.2 mg cholesterol/yolk | Yolk cholesterol content, mg cholesterol/g yolk (laying hens [4]; 0.06% of diet, Week 0): 11.3 ± 0.3^a mg cholesterol/g yolk | Yolk cholesterol content, mg cholesterol/yolk (laying hens [4]; 0.06% of diet, Week 0): 191.9 ± 7.3^a mg cholesterol/yolk | Yolk cholesterol content, mg cholesterol/g yolk (laying hens [4]; 0.06% of diet, Week 1): 9.3 ± 0.2^c mg cholesterol/g yolk | Yolk cholesterol content, mg cholesterol/yolk (laying hens [4]; 0.06% of diet, Week 1): 149.7 ± 3.8^c mg cholesterol/yolk | Yolk cholesterol content, mg cholesterol/g yolk (laying hens [4]; [9]): 9.3 mg cholesterol/g yolk | Yolk cholesterol content, mg cholesterol/yolk (laying hens [4]; [9]): 149.7 mg cholesterol/yolk | Yolk cholesterol content, mg cholesterol/g yolk (laying hens [4]; 0.06% of diet, Week 2): 7.8 ± 0.3^f mg cholesterol/g yolk | Yolk cholesterol content, mg cholesterol/yolk (laying hens [4]; 0.06% of diet, Week 2): 105.3 ± 4.3^d mg cholesterol/yolk | Yolk cholesterol content, mg cholesterol/yolk (laying hens [4]; 0.06% of diet, Week 2, listed as atorvastatin): 105.3 mg cholesterol/yolk | Yolk cholesterol content, mg cholesterol/g yolk (laying hens [4]; 0.06% of diet, Week 3): 7.5 ± 0.1^f mg cholesterol/g yolk | Yolk cholesterol content, mg cholesterol/yolk (laying hens [4]; 0.06% of diet, Week 3): 104.0 ± 3.7^d mg cholesterol/yolk | Yolk cholesterol content, mg cholesterol/g yolk (laying hens [4]; 0.06% of diet, Week 4): 7.5 ± 0.1^e mg cholesterol/g yolk | Yolk cholesterol content, mg cholesterol/yolk (laying hens [4]; 0.06% of diet, Week 4): 104.2 ± 2.3^d mg cholesterol/yolk | Yolk cholesterol content, mg cholesterol/g yolk (laying hens [4]; 0.06% of diet, Week 5): 7.6 ± 0.2^d mg cholesterol/g yolk | yolk cholesterol reduction from control on a per yolk (egg) basis (laying hens [4]; [10]): 46% | yolk cholesterol reduction from control per g of yolk (mg/g basis) (laying hens [4]; [10]): 35% | less total yolk cholesterol than control eggs (laying hens [4]; high dose (0.06%)): 45% | less total yolk cholesterol than control eggs (laying hens [4]; low dose (0.03%)): 27% | Liver Cholesterol mg/g liver (laying hens [5]; 0.03% of diet): 2.8 ± 0.05^c mg/g liver | Liver Cholesterol mg/liver (laying hens [5]; 0.03% of diet): 87.4 ± 2.2^a mg/liver | Liver Cholesterol mg/g liver (laying hens [5]; 0.06% of diet): 2.5 ± 0.07^d mg/g liver | Liver Cholesterol mg/liver (laying hens [5]; 0.06% of diet): 89.7 ± 5.2^a mg/liver
